Measured values: patent publication US9879032B2, “Pyridine compounds” (Daiichi Sankyo Company, Limited, priority 2015, dated 2018)

Tested on: plasma ALP (80-90% containing TNAP)
Assay: Inhibitory test of plasma TNAP activity in B6 mouse
Type: in vivo
Conditions: administered orally, average inhibition from 0 hour to 6 hours after administration
Description: After blood sampling from the tail vein using a heparin-treated hematocrit capillary tube (EM Meister Hematocrit Capillary Tube, AS ONE Corp.) (as the sample before compound administration), each test compound suspended in a 0.5% methylcellulose solution (powder purchased from Wako Pure Chemical Industries, Ltd. was adjusted to 0.5% with Otsuka distilled water) was administered orally to the mouse. 1, 2, 4, 6, and 24 hours after the administration, blood was collected from the tail vein using a heparin-treated hematocrit capillary tube to obtain a plasma sample. The plasma sample was added to an assay buffer (1 M Tris, 1 M MgCl2, 20 mM ZnCl2, and water, pH 7.5), and the mixture was left standing for 5 minutes. Then, the absorbance at 405 nm was measured and used as a blank. The substrate pNPP was added to the plasma sample and incubated at room temperature for 180 minutes. Then, the absorbance (ABS: 405 nm) was measured using a microplate reader (model plus 384, Molecular Devices, LLC), and the concentration of produced p-nitrophenol was calculated. The blank was subtracted from all measurement values to calculate TNAP activity at each time point with the TNAP activity of the sample before compound administration defined as 100%. The pharmaceutical effect of the test compound was evaluated by the average inhibition of plasma ALP (80-90% containing TNAP) activity for 6 hours from 0 hour to 6 hours after the administration of the test compound. It was calculated according to the following expression: 100−((plasma ALP activity at 0 hr+plasma ALP activity at 1 hr)*1/2+(plasma ALP activity at 1 hr+plasma ALP activity at 2 hr)*1/2+(plasma ALP activity at 2 hr+plasma ALP activity at 4 hr)*2/2+(plasma ALP activity at 4 hr+plasma ALP activity at 6 hr)*2/2)/6.

SMILES: COc1ccc(OC)c(S(=O)(=O)[N-]c2cnc3c(c2)C(=O)NC2(CC2)CO3)c1.[K+] [Example 61, Potassium [(2,5-dimethoxyphenyl)sulfonyl](5′-oxo-4′,5′-dihydrospiro[cyclopropane-1,3′-pyrido[3,2-f][1,4]oxazepin]-7′-yl)azanide]
- Plasma ALP inhibition (6 h ave. inhibition %): 67.5%
